Target: T1, α1β3 GABAA receptor, 3α1:2β3 stoichiometry (α1 + β3, 30:1) (Homo sapiens, UniProt P14867+P28472)
T1 construct: gene GABRA1; full-length free subunits, cRNA ratio α1:β3 30:1, Xenopus laevis oocytes; heteropentamer; 'Human' printed for α1 and γ2, β3 implied by same sentence
T1 sequence (P14867 28-456): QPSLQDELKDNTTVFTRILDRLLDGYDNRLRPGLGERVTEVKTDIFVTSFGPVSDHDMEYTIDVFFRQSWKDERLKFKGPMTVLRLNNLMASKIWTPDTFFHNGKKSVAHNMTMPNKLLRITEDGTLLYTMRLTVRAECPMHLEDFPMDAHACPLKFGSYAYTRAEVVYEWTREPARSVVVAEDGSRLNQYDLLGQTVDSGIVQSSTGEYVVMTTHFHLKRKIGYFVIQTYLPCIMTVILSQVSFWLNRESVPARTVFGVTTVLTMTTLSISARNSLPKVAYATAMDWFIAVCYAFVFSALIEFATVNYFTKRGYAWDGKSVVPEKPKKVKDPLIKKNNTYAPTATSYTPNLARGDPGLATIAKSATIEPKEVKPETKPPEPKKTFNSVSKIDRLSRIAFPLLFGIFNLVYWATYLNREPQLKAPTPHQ
T1 sequence (P28472 26-473): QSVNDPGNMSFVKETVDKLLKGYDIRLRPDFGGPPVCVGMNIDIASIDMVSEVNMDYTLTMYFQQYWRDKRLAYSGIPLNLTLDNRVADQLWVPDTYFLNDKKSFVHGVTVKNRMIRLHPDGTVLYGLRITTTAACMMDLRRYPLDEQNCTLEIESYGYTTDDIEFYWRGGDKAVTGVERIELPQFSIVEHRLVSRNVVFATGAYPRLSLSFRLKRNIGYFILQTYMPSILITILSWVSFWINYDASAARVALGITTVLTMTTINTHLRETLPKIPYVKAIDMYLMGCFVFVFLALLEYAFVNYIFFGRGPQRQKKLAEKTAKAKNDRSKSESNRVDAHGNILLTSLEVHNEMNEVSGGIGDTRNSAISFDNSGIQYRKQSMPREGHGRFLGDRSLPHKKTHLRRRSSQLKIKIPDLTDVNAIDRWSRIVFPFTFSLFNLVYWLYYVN
Assay: two-electrode voltage clamp, Xenopus oocytes
Type: cell-based
Settings: read-out: % inhibition at 1 μM

With `CCOC(=O)c1ncn2c1CN(C)C(=O)c1cc(F)ccc1-2` [flumazenil, Ethyl 8-fluoro-5-methyl-6-oxo-5,6-dihydro-4H-benzo[f]imidazo[1,5-a][1,4]diazepine-3-carboxylate] the inhibition at 1 µM was 95%.

— article PMC4921915 (Scientific Reports, 2016)
